The values that follow come from publication PMC11432454, “An Ingenane-Type Diterpene from Euphorbia kansui Promoted Cell Apoptosis and Macrophage Polarization via the Regulation of PKC Signaling Pathways” (International Journal of Molecular Sciences, 2024).

Series [1] concerns PKC δ, ERK, and NF-κB in LPS-stimulated RAW264.7 cells. Put plainly: Western blotting of PKC δ, ERK, NF-κB in LPS-stimulated RAW264.7 cells. The series is classed as cell-based, mouse. The following applies: for level of PKC δ protein / phosphorylation of PKC δ, ERK, and NF-κB: LPS-stimulated RAW264.7, 24 h; for phosphorylation of PKC δ, ERK, and NF-κB: compared to the LPS group, BIS 150 nmol·L^−1. As for the experimental part:
(§1) Mouse macrophage cell line RAW264.7 was incubated in a DMEM medium (Gibco, Carlsabad, CA, USA) supplemented with 10% fetal bovine serum (FBS, Gibco), 10,000 U/mL penicillin, and 10,000 μg/mL streptomycin. RAW264.7 cells were treated with 1 μg/mL Lipopolysaccharide (LPS, Sigma, Saint Louis, MO, USA, 12181202) to promote the polarization of macrophages towards M1 or 20 ng/mL interleukin 4 (IL-4, Beyotime, Shanghai, China) to promote the polarization of macrophages towards M2.
(§2) Protein samples were prepared using a RIPA lysis buffer. The concentration of the protein was analyzed using nucleic acid and protein microanalyzer (Molecular Devices, San Jose, CA, USA). SDS-PAGE gel electrophoresis was performed to separate the proteins, which then were electro-transferred onto a PVDF membrane. The membranes were blocked with 5% non-fat milk for 2 h and incubated with primary antibodies and secondary antibodies. The protein bands were detected by the ECL and were exposed to the TANON gel imager (Shanghai, China). The results were analyzed by Image J 180 software.
In order to investigate the effects of PKC activation on the effects of drug treatment, 150 nmoL/L bisindolylmaleimide (BIS) was used. BIS (Beyotime, Shanghai, China) is a potent inhibitor of PKC α/β/γ and PKC δ/ε. This agent was stored at −80 °C in DMSO and cells were pre-incubated with the inhibitor for 4 h prior to being treated with compound A.

Series [2] deals with HepG2 cells. Put plainly: MTT assay, cell viability of HepG2 cells. In kind it is cell-based. The following applies: Homo sapiens. Here is the method:
(§3) 8 × 10^4 cells/well were incubated in 96T wells for 24 h, and the cells were treated with a drug-containing medium for a specified time. Cells were added 20 μL 0.5% MTT (Sigma, USA) to each well, continued to incubate at 37 °C for 3.5 h, then the medium was discarded and 150 μL of DMSO was added to each well to dissolve the purple formazan. The cells were shaken for 15 min at room temperature and read at 490 nm. Cell viability (%) = ([…])/(ODcontrol − ODblank) × 100%. IC50 (half maximal inhibitory concentration) was calculated by SPSS 27.0 software.

Series [3] is described as follows: MTT assay, cell viability of RAW264.7 cells. The series is classed as cell-based. The conditions noted are these: mouse, RAW264.7 macrophage cells; half inhibitory of RAW264.7 cells, cell survival, n = 3. Here is the method:
as §1, §3
For orientation: Tetrazolium assays rely on reduction of a dye to a coloured formazan, in cell work by metabolically active cells.

For series [4], the system named is NO production in LPS-stimulated RAW264.7 cells. Put plainly: cells. The series is classed as cell-based. The following applies: Mus musculus. Here is the method:
as §1
(§4) The isolates were evaluated for their inhibitory effect on NO production in LPS-induced RAW264.7 cells. The iNOS inhibitor ([…], L-NMMA) was selected as the positive control. NO was evaluated by absorbance-based detection on nitrite accumulated in the culture medium. The levels of cytokines (IL-1β, IFN-γ, IL-10, TNF-α, and IL-6) in the cell supernatant were determined using an ELISA kit (Novus Biologicals, Centennial, CO, USA) according to the manufacturer’s instructions. The absorbance was read at OD450nm/OD540nm in SpectraMax340PC microplate spectrophotometer (Molecular Devices, San Jose, CA, USA).

The test system of a further series is A549 cells. Put plainly: MTT assay, cell viability of A549 cells. In kind it is cell-based. The following applies: Homo sapiens, A549, read-out: A549 IC50. Here is the method: as §3
The next series relates to MCF-7 cells. Put plainly: MTT assay, cell viability of MCF-7 cells. The following applies: Homo sapiens, MCF7, read-out: MCF-7 IC50. In kind it is cell-based. Here is the method:
as §3

Series [5] has as its system HepG2 cells. Put plainly: Annexin V/PI flow cytometry, apoptosis of HepG2 cells. The series is classed as cell-based, human. The conditions noted are these: 12.5 μmol·L^−1 or 25 μmol·L^−1. As for the experimental part:
(§5) Cells with the relevant surface antibodies were incubated at 4 °C for 30 min without light. The stained cells were incubated with Annexin V/PI kits from BD. The experiment was conducted according to the instructions. Data were analyzed on FlowJo V10 software.
In general terms: A flow cytometer gives signals particle by particle.

For series [6], the system named is Bax, cleaved caspase 3, cleaved caspase 8 in HepG2 cells. Put plainly: Western blotting of apoptosis-related proteins in HepG2 cells. In kind it is cell-based, human. The following applies: 12.5 or 25 μmol·L^−1. As for the experimental part: as §2
A general note: A western blot detects proteins with antibodies after separation by electrophoresis.

Series [7] concerns PKC δ and ERK in HepG2 cells. Put plainly: Western blotting of PKC δ and ERK expression and phosphorylation in HepG2 cells. The series is classed as cell-based, human. Here is the method:
as §2

For series [8], the system named is iNOS, COX2, NO, IL-1β, IL-6 in LPS-stimulated RAW264.7 cells. Put plainly: Inflammatory mediators in LPS-stimulated RAW264.7 cells (Western blot, ELISA, immunofluorescence). The series is classed as cell-based, mouse. The following applies: LPS (1 μg·mL^−1)-stimulated RAW264.7, 10 and 5 μmol·L^−1, 24 h. Here is the method: Mouse macrophage cell line RAW264.7 was incubated in a DMEM medium (Gibco, Carlsabad, CA, USA) supplemented with 10% fetal bovine serum (FBS, Gibco), 10,000 U/mL penicillin, and 10,000 μg/mL streptomycin. RAW264.7 cells were treated with 1 μg/mL Lipopolysaccharide (LPS, Sigma, Saint Louis, MO, USA, 12181202) to promote the polarization of macrophages towards M1 or 20 ng/mL interleukin 4 (IL-4, Beyotime, Shanghai, China) to promote the polarization of macrophages towards M2. […]
The isolates were evaluated for their inhibitory effect on NO production in LPS-induced RAW264.7 cells. […] NO was evaluated by absorbance-based detection on nitrite accumulated in the culture medium. The levels of cytokines (IL-1β, IFN-γ, IL-10, TNF-α, and IL-6) in the cell supernatant were determined using an ELISA kit (Novus Biologicals, Centennial, CO, USA) according to the manufacturer’s instructions. The absorbance was read at OD450nm/OD540nm in SpectraMax340PC microplate spectrophotometer (Molecular Devices, San Jose, CA, USA).
Protein samples were prepared using a RIPA lysis buffer. The concentration of the protein was analyzed using nucleic acid and protein microanalyzer (Molecular Devices, San Jose, CA, USA). […] The protein bands were detected by the ECL and were exposed to the TANON gel imager (Shanghai, China). The results were analyzed by Image J 180 software.

For series [9], the system named is PKC δ, ERK, STAT3, STAT6, ARG-1, CD163, TGF-β, CD206 in IL-4-stimulated RAW264.7 cells. Put plainly: M2 polarization markers in IL-4-stimulated RAW264.7 cells (Western blot, immunofluorescence). The series is classed as cell-based, mouse. Here is the method: as §1
RAW264.7 cells were fixed with 500 μL/well 4% paraformaldehyde for 20 min at room temperature, washed with 1 mL/well PBS five times, then incubated with anti-iNOS, anti-COX-2, or anti-CD206 antibodies at 4 °C overnight, separately. The cells were washed with 1 mL/well PBS five times, then treated with the secondary antibody (FITC-Goat anti-rabbit IgG antibody, 1:200-fold dilution) and DPAI (100 μL/well). […] The stained images were captured under a laser scanning confocal microscope (Nikon A1 AIR MP+, Tokyo, Japan).
as §2

The subject of series [10] is HepG2 and RAW264.7 cell co-cultivations. Put plainly: Annexin V/PI flow cytometry, HepG2 and RAW264.7 co-cultivation. In kind it is cell-based. The conditions noted are these: 48 h, compared with the HepG2 cell group. Here is the method:
as §5

Series [11] concerns Bax, cleaved caspase 3 and 8, IL-6, ARG-1, CD206, COX2 in HepG2 and RAW264.7 cell co-cultivations. Put plainly: Western blotting and ELISA in HepG2 and RAW264.7 co-cultivation. In kind it is cell-based. Here is the method:
as §4, §2

[12] abbreviates: IL-4 (20 ng/mL)-stimulated RAW264.7, 10 μmol·L^−1, 0–60 min.
Where [13] appears, read: compared with HepG2 cell group and co-cultivation group.

Like-named read-outs stand apart in the source and are kept apart here. Bounds are passed on as bounds.

The term IC50 denotes the point on the concentration scale where inhibition reaches its midpoint. One may read the CC50 as the concentration giving 50% cytotoxicity.

For “bisindolylmaleimide [reference compound]”, in series [1], the “level of PKC δ protein” value is “did not”; the “phosphorylation of PKC δ, ERK, and NF-κB” value is listed as “significantly reduced”.

As for `COc1cccc2c1C(=O)c1c(O)c3c(c(O)c1C2=O)C[C@@](O)(C(=O)CO)C[C@@H]3O[C@H]1C[C@H](N)[C@H](O)[C@H](C)O1` [Adr, adriamycin, reference compound], the IC50 in the series with HepG2 cells [2] (HepG2, cell viability, MTT, n = 3, read-out: HepG2 IC50) is 4.37 ± 1.21 µM.

With `[H]/N=C(/NC)NCCC[C@H](N)C(=O)O` [l-NMMA, NG-monnomycin-l-arginine, reference compound], the CC50 in series [3] is more than 50 µM. For the same compound, the half-inhibitory concentration (IC50) in series [4] (RAW264.7, read-out: RAW264.7 IC50 (inhibition of nitric oxide production)) worked out at 21.8 ± 3.21 µM.

Take `CCCCCCCCCCCC(=O)OC12CC(C)C34C=C(C)C(OC(=O)C(C)C(C)C)C3(O)C(O)C(CO)=CC(C4=O)C1C2(C)C` (centres unmarked) [Compound A, 13-hydroxyingenol-3-(2,3-dimethylbutanoate)-13-dodecanoate]: in the series on A549 cells, the IC50 is 22 ± 5.01 µM. The IC50 in the series with MCF-7 cells was 27.1 ± 3.34 µM. Besides, in the series with HepG2 cells [2] (HepG2, read-out: HepG2 IC50), the IC50 is 21 ± 4.53 µM. This compound also showed a CC50 in series [3] of 20.3 ± 3.62 µM. Also, the IC50 in [4] (LPS-stimulated RAW264.7 cells, n = 3, read-out: RAW264.7 IC50 (inhibition of nitric oxide production)) was found to be 0.57 ± 0.07 µM. Moreover, the “apoptosis in HepG2 cells” value in the series on HepG2 cells [5] is given as “significantly induced apoptosis”. Besides, the “expression of Bax, cleaved caspase 3, and cleaved caspase 8” value in series [6] is “increased”. Further, the “time of highest level of phosphorylation of PKC δ” value in [7] (treated 0, 10, 20, 40, 60 min) fell in the range of 10 to 20 min. Moreover, in series [7] (versus control group), the “expression of PKC δ” value is “decreased”; the “phosphorylation of PKC δ (p-PKC δ) and ERK (p-ERK)” value is given as “downregulated”. The “time of highest point of phosphorylation of PKC δ, ERK, and NF-κB” value in series [1] (LPS (1 μg·mL^−1)-stimulated RAW264.7, compound A 10 μmol·L^−1, 0-60 min) lay in the range of 20 to 30 min. In series [1], the “level of PKC δ protein” value is recorded as “decreased”; the “phosphorylation of PKC δ, ERK, and NF-κB” value was “significantly reduced”. Also, in series [8], the COX2 expression entry is “increased”; the “expression of iNOS and production of cytokines (NO, IL-1β, IL-6)” value is listed as “decrease”. Further, in series [9] (setting [12]), the “PKC δ and ERK activation” value is “promote”; the STAT6 phosphorylation result is on record as “inhibited”. Moreover, in series [9] (IL-4-stimulated RAW264.7, co-treatment 24 h), the “activation of STAT3 and STAT6” value is given as “inhibited”. Also, the “expression of ARG-1, CD163, TGF-β, and CD206” value in series [9] (IL-4-stimulated RAW264.7 cells) is “downregulated”. In addition, the apoptosis rates entry in series [10] is “upregulated”. Further, the “level of Bax, and cleaved caspase 3 and 8” value in series [11] (10 μmol·L^−1, 48 h) is recorded as “significantly increase”. In series [11] (setting [13]), the COX2 expression result is listed as “increased”; the “expression of ARG-1 and CD206” value is given as “decreased”; the “level of IL-6” value is listed as “decreased”.
